pEC50: −log10 of the molar value.

This note sets out measurements from article PMC8353271, “Functional Characterization of Olfactory Receptors in the Thyroid Gland” (Frontiers in Physiology, 2021).

The experiment has as its target T1, OR2H2 (Homo sapiens, UniProt O95918).
T1 sequence (O95918 1-312): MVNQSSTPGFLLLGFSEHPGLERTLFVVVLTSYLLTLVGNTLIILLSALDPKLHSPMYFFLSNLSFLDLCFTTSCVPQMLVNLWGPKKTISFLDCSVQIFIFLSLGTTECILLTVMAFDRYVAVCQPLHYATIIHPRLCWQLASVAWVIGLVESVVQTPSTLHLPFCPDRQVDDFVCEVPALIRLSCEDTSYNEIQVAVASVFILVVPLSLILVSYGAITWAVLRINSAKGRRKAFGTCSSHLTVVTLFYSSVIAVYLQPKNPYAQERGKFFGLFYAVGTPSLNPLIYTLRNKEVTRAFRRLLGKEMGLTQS
Put plainly: Fura-2 Ca2+ imaging in Nthy-ori […]-1 cells (endogenous receptor), response reduced by CRISPR/Cas9 OR2H2 knockout; cAMP assay. Format: cell-based. On the technique in general: Changes in cAMP serve as a functional read-out for many G protein-coupled receptors.

By pEC50 is commonly meant −log10 of the EC50, conventionally taken in molar units. A higher pEC50 goes with a small EC50. In the case of aldehyde 13-13, the pEC50 was 3.44.
